Values quoted from earlier work in patent US20230330298A1 (priority 2022, published 2023).

Tested on: Clostridium botulinum spores

SMILES | Sporicidal Minimal Inhibitory Concentration | Sporostatic Minimal Inhibitory Concentration
O=CC=Cc1ccccc1 [Cinnamaldehyde] | >2500 mM | 9.8 mM
COc1cc(C=O)ccc1O [Vanillin] | 125 mM | 0.6 mM
O=Cc1ccc2c(c1)OCO2 [Piperonal] | >2500 mM | 0.6 mM
O=Cc1ccccc1 [Benzaldehyde] | 625 mM | 0.6 mM

Tested on: bacterial spores

SMILES | Sporicidal effect (in words)
CCCCCCCCCCCC(=O)OCC(O)CO (stereo not shown) [Monolaurin] | kill bacterial spores
CCCCCCCCCCCCCCCCCC(=O)OCC(O)CO (stereo not shown) [glycerol monostearate] | kill bacterial spores
